# “Also recorded” adds a separate entry of the source.
# Legend:
# [1] = High-throughput colorimetric calcium depletion assay (crystallization half-time); details: 37° C., crystallization volume 600 μL, shaking; logistic fit
# Procedure: Free calcium concentration in the crystallization solution was measured by a colorimetric assay using Quantichrome DICA 500 Calcium assay kit (BioAssay Systems, Hayward, Calif.). Standard solutions (0, 0.1, 0.2, 0.3, 0.4, 0.5, and 1 mM) were prepared using calcium solutions provided with the kit. Detection reagent was prepared by mixing equal volumes of reagent A and reagent B according to manufacturer's instructions. A 10 μL sample was withdrawn from the top of each crystallization well without disturbing the bottom and dispensed into a 96-well microplate. 100 μL of detection reagent was added to each well and incubated for 3 minutes at room temperature. The absorbance was measured at 612 nm using Biotek Synergy H4 microplate reader (BioTek, Winooski, Vt.). Calcium concentration was determined using a calibration curve prepared from standard calcium solutions.
# Time course of depletion of free calcium in the crystallization solution, normalized to the initial concentration, was fitted to a nonlinear logistic function using OriginPro Software (Origin Lab, Northhampton, Mass.). The logistic function relating calcium concentration to time is given by
# where [Ca]t is the normalized calcium concentration at time t, A1 is the normalized initial supersaturation concentration (i.e at t=0), A2 is the normalized equilibrium concentration (i.e. at t=∞), p is the hill coefficient which represents slope of the curve at midpoint, and t1/2 is the crystallization half-time (CHT), defined as the time at which crystallization is 50% complete (i.e. [Ca]t1/2=[…]). A1 was fixed at 1, and A2, p and t1/2 were obtained from fitting the data to equation 1. CHT was used as a measure of inhibition potentials of the peptides. A one-way ANOVA in combination with Tukey post hoc test at p<0.05 level was used to probe statistical significance. Applicants' studied the effects of experimental parameters including volume, shaking and temperature on crystallization in designing a high-throughput screening assay. Applicants have shown the logistic model effectively represents the three phases: induction, crystal growth and equilibrium observed in our setup, and CHT (t1/2) can be used as a measure of efficacy of potential crystal growth modifiers. The peptide library screened comprised of Asp and Ala residues (peptides D1-D13) at optimized assay conditions of 37° C., crystallization volume of 600 μL in a shaking environment. […] The high throughput of the assay provides the opportunity to assess the growth modulation potential of crystal growth modifiers at varying modifier concentrations, supersaturations and ionic strengths with relative ease. […] Finally, the assay can be translated to other crystallization systems in a relatively straightforward fashion for rational design and discovery of growth modifiers for specific applications.
# [2] = In situ calcium ion-selective electrode (ISE) measurement of COM crystallization; details: for percent reduction in COM growth rate: 20 μg/ml additive, supersaturated calcium oxalate S=5.4, stirred, ISE slope in first 40 min vs control
# Procedure: The COM growth rate was measured as the slope (dCa/dt) of decreasing Ca^2+ concentration within the first 40 min of crystallization. […] The percent reduction in COM growth rate was calculated by comparing the ISE slopes of peptides and control using the formula, Percent Reduction=[1−(dCa/dt)peptide/(dCa/dt)control]×100%. Data are averages of 2 or 3 measurements (error bars equal two standard deviations);
# COM crystals for bulk crystallization studies were synthesized using a reported procedure that produces micron-sized crystals with large basal (100) surfaces. COM crystals prepared with molar composition 0.7 mM CaCl2: 0.7 mM Na2C2O4: 150 mM NaCl are referred to as the control. Growth solutions prepared with peptides used 20 μg/ml of the additive (unless otherwise stated).
# As such, measurements reported herein were conducted at a single peptide concentration (20 μg/ml) to assess COM growth inhibition. To facilitate comparison of peptides in Table 1, Applicants calculated the percent reduction in COM growth rate using the relative difference in ISE slopes (units of ppm Ca^2+ per time) for peptide and control samples during the first 40 min of crystallization.
# The slope of ISE curves (FIG. 2A) is the temporal change in free Ca^2+ concentration due to COM nucleation (primary and secondary) and crystal growth. Deconvoluting these two processes (nucleation and growth) from ISE data is nontrivial, particularly if one wishes to extract detailed kinetic information of COM growth rates. […] In the current study, the distinct advantage of ISE compared to more traditional approaches is its ease of use and the rapid time for data acquisition that enables high-throughput analysis of large peptide libraries.
# A quantitative comparison of peptide efficacy for inhibiting COM crystallization was performed using in situ ISE measurements. The percent inhibition in COM growth rate was calculated using the relative difference in ISE slopes in the presence of 20 μg/mL peptide. […] The effect of Asp with Glu in peptide sequences was measured on COM growth inhibition (Table 2).
# [3] = Bulk crystallization studies of COM crystal size and habit (optical microscopy, SEM, AFM); details: for COM crystal habit / morphology: bulk crystallization with 20 μg/ml peptide
# Procedure: FIGS. 4A-4B show macroscopic characterization of COM crystals from bulk crystallization in solutions of 0.5 mM CaC2O4 and 20 μg/ml peptide. Optical microscopy was used to measure: Percent distribution of elongated hexagonal platelet (shaded bars) and diamond platelet (pattern bars) crystal morphologies (FIG. 4A); and length of the COM (100) basal surface measured along the direction (i.e. apical tip-to-tip distance) for hexagonal and diamond morphologies (FIG. 4B). Data in (FIG. 4A) and (FIG. 4B) are the average of three separate crystallization experiments performed at 60° C. for 3 days (error bars equal one standard deviation). Data for peptide D4 (diamond habit) was omitted based on too few crystals for statistical analysis;
# COM crystals for bulk crystallization studies were synthesized using a reported procedure that produces micron-sized crystals with large basal (100) surfaces. COM crystals prepared with molar composition 0.7 mM CaCl2: 0.7 mM Na2C2O4: 150 mM NaCl are referred to as the control. Growth solutions prepared with peptides used 20 μg/ml of the additive (unless otherwise stated). The crystals were characterized by optical microscopy using a Leica DM2500-M microscope, scanning electron microscope (SEM) using a FEI 235 Dual-Beam Focused Ion-beam instrument, atomic force microscopy (AFM) using an Asylum MFP-3D-SA instrument (Santa Barbara, Calif.), and a calcium ion-selective electrode (ISE, ThermoScientific).
# ISE measurements can be used to screen peptide efficacy, but provide little information regarding the specificity of peptide binding to different surfaces of COM crystals. To this end, Applicants used a second analysis step to identify the effect of peptides on COM crystal size and habit. The influence of the peptide library on macroscopic properties of COM crystals was assessed using bulk crystallization studies and optical and scanning electron microscopy to characterize COM crystals grown in the presence of peptides. In vitro, COM crystallization yields elongated hexagonal platelets with {100} basal surfaces bounded by {010} and crystallographically equivalent {121} apical surfaces (FIG. 3A). […] Applicants observed that multiple peptides in the library reduced growth along the directions, which decreased the crystal aspect ratio (length-to-width) and shifted the morphology from hexagonal to diamond platelets. This change in crystal habit can be attributed to the preferential binding of peptides to COM {121} surfaces, which slows growth along the naturally fast growth directions within the (100) plane.
# To more systematically assess the surface topography of COM crystals, Applicants used atomic force microscopy (AFM) to probe the effect of peptides on COM (100) surface roughness. Crystals extracted from control and peptide D5 batches were prepared on AFM sample disks and imaged in air. The RMS roughness for (100) surfaces of hexagonal-shaped crystals from the control and test peptide D5 were approximately 1.0 and 4.3 nm, respectively.
# Crystal batches prepared in bulk studies were analyzed using optical microscopy to quantify changes in COM crystal size and aspect ratio. […] Although there were clear differences in the percent population of diamond-shaped crystals among peptides tested in this study, Applicants observed that the size of diamond crystals were generally the same, irrespective of peptide sequence (FIG. 4B). The majority of COM hexagonal platelets in peptide samples had similar size and aspect ratio as the control (here Applicants only report the length of COM crystals in FIG. 4B). A notable exception, however, was peptide D4, which produced a 22% increase in the length-to-width aspect ratio of COM hexagonal crystals, and an increase in the length from 35 μm (control) to 75 μm (peptide D4).
# [4] = ISE slopes in the presence of 20 μg/mL peptide, comparison X = D vs X = E
# [5] = Calcium ISE measurements of COM growth at room temperature, Glu-Ala peptide library
Substance,"CHT (hr), crystallization half-time [1] [h]","% inhibition [2, 4] [%]",COM crystal habit / morphology ([3]; SEM),further results
ADAADAAADAADDAADAA (Synthesized Calcium oxalate monohydrate inhibitory polypeptide) [D10],6.054,36 ± 5,,
ADAAADAADAADDAADAA (Synthesized Calcium oxalate monohydrate inhibitory polypeptide) [D3],4.142,,,
ADAAADDAAAAAAAADAA (Synthesized Calcium oxalate monohydrate inhibitory polypeptide) [D7],5.771,,,"[100] thickness of hexagonal platelets relative to control ([3]; SEM, 20 μg/ml peptide): decreased the [100] thickness of hexagonal platelets by nearly a factor of two; percent reduction in COM growth rate [2]: < 1%"
ADAAADDDAAADAAADDD (Synthesized Calcium oxalate monohydrate inhibitory polypeptide) [D6],5.041,,,factor of increase of the [001] length of hexagonal COM crystals relative to the control ([3]; 20 μg/ml peptide): 1.5
DDDAAAAADDDAAAAADD (Synthesized Calcium oxalate monohydrate inhibitory polypeptide) [D1],6.482,,small {121} surface area,factor of increase of the [001] length of hexagonal COM crystals relative to the control ([3]; 20 μg/ml peptide): 2.0
ADAADAADAADAADAADA (Synthesized Calcium oxalate monohydrate inhibitory polypeptide) [D4],4.432,21 ± 10,higher length-to-width aspect ratio,"[001] length of COM hexagonal crystals ([3]; 20 μg/ml peptide, control 35 μm): 75 μm; increase in the length-to-width aspect ratio of COM hexagonal crystals ([3]; 20 μg/ml peptide, vs control (2.67±0.05)): 22%; percent reduction in COM growth rate [2]: 20%"
ADADADADADADADADAD (Synthesized Calcium oxalate monohydrate inhibitory polypeptide) [D13],8.114,,,
A-E-A-A-A-E-E-A-A-A-E-A-A-A-E-E-A-A (AEAAAEEAAAEAAAEEAA; Synthesized Calcium oxalate monohydrate inhibitory polypeptide) [E5],,36 ± 21,,"% inhibition [2, 5]: 36 ± 21%"
A-E-A-A-E-A-A-A-E-A-A-E-E-A-A-E-A-A (AEAAEAAAEAAEEAAEAA; Synthesized Calcium oxalate monohydrate inhibitory polypeptide) [E6],,52 ± 16,polydisperse distribution of crystals; also recorded: less effective than E7,"% inhibition [2, 5]: 52 ± 16%"
ADAADDAAAAAADAADAA (Synthesized Calcium oxalate monohydrate inhibitory polypeptide) [D11],5.767,,large {121} surface area,
AADAAAAADDAAAADAAA (Synthesized Calcium oxalate monohydrate inhibitory polypeptide) [D2],3.533,,,
A-E-A-A-E-A-A-E-A-A-E-A-A-E-A-A-E-A (AEAAEAAEAAEAAEAAEA; Synthesized Calcium oxalate monohydrate inhibitory polypeptide) [E3],,40 ± 18,,
ADAAADDAAADAAADDAA (Synthesized Calcium oxalate monohydrate inhibitory polypeptide) [D9],7.277,36 ± 8,,"percent reduction in COM growth rate [2]: 40%; increase in peptide efficacy on replacing L-Ala spacer with L-Asp binder (relative to peptide D7) ([2]; ISE, 20 μg/ml, series D7, D8, D9): ~70"
ADAADDAADAADDAAAAA (Synthesized Calcium oxalate monohydrate inhibitory polypeptide) [D5],4.641,,,"percentage of diamond-shaped crystals in total crystal population ([3]; 20 μg/ml peptide, 60° C. for 3 days, optical microscopy, average of three experiments): largest populations of diamond-shaped crystals; RMS roughness of diamond-shaped crystals ([3]; AFM imaged in air): 3.2 nm; RMS roughness of (100) surfaces of hexagonal-shaped crystals ([3]; AFM imaged in air, control approximately 1.0 nm): ~4.3 nm; percent reduction in COM growth rate [2]: 30%"
ADDAADAADAADDAADDA (Synthesized Calcium oxalate monohydrate inhibitory polypeptide) [D12],7.135,,,
A-E-A-A-E-E-A-A-A-A-A-A-E-A-A-E-A-A (AEAAEEAAAAAAEAAEAA; Synthesized Calcium oxalate monohydrate inhibitory polypeptide) [E7],,,polydisperse distribution of crystals,

# From US10246489B2, “Peptide inhibitors of calcium oxalate monohydrate crystallization and uses thereof” (UNIVERSITY OF HOUSTON, priority 2013, dated 2019)
